Values after ≈ are worked out from the molar mass of the structure shown.
How the values were obtained:
Format in all cases: cell-based
Actinomyces viscosus = assay: Minimum Inhibitory Concentration (MIC), two-fold dilutions in trypticase soy broth; conditions: 18-24 hours of incubation
Method: (§1) Minimum Inhibitory Concentration (MIC) values are determined generally according to the following method: A series of two-fold dilutions in trypticase soy broth (Catalog No. 211768; Becton Dickinson, Franklin Lakes N.J.) are prepared in a 96 well plate and a constant amount of bacteria is then added to each well. After 18-24 hours of incubation, bacterial growth is measured with a Spectrophotometric Micro-plate Reader (Powerwave 5×, BioTEK, Winooski Vt.) and the MIC values are determined.
(§2) Table 4 (below) describes the antibacterial efficacy of isopropyl magnolol against various oral pathogens.

Fusobcaterium nucleatum = assay: as above
Method: as §1, §2

Streptococcus sanguis = assay: as above; conditions: 18-24 hours of incubation
Method: as §1, §2

Streptoccus mutans = assay: as above
Method: as §1, §2

A. actinomycetemcomitans = assay: as above; conditions: Aggregatibacter actinomycetemcomitans, 18-24 hours of incubation
Method: as §1, §2

PGE2 = assay: Mat Tek PGE2 tissue model, anti-inflammatory activity; conditions: dentifrice slurry 1:4 in PBS, base dentifrice with 1% active; 2 minutes treatment; IL-β about 10 ng/ml
Method: Anti-inflammatory activity of IPM is evaluated using the Mat Tek PGE2 tissue model.
One (1) mL of tissue culture media (supplied by MatTek) is added to each well of a 6-well plate (×4). The plate is incubated overnight (37° C., 5% CO2). Treatment solutions comprising the dentifrice slurries are prepared, wherein the base dentifrice contains 1% isopropyl magnolol. Slurries of the dentifrices are prepared in a 1:4 ratio by weight of dentifrice:phosphate buffered saline (PBS). Slurries are placed on a stir plate for a minimum of 30 minutes to allow the solution to fully homogenize.
The tissue media is prepared by adding IL-β from a frozen stock solution to the tissue culture media. The final concentration of IL-β in the media is about 10 ng/ml.
1 ml of tissue culture media containing IL-β is added to each well of a 6-well plate (×4). […] of treatment solution is then added to the surface of the tissue and let sit for 2 minutes. The treatment solution is removed by aspiration.
The tissue is then washed using about 200 μl of PBS. PBS is then removed by aspiration, and the process is repeated for a total of 3 washes.
Tissue is then transferred the original 6-well plates to new 6-well plates with media containing IL-β. The plates are incubated (37° C., 5% CO2) for between 7 and 24 hours, depending on the active or dentifrice being tested.
The used media from the old 6-well plates is pipetted into a single 24-well plate, for use as a baseline sample. The plates are removed from the incubator and the used media is pipetted from the 6-well plates into a single 24-well plate, for use as a reference sample for the designated time point. The results of this assay are described in Table 3 (below).

SMILES: C=CCc1ccc(O)c(-c2cc(CC=C)ccc2O)c1 [Magnolol, 5,5′-Diallyl-biphenyl-2,2′-diol]
- MIC (Actinomyces viscosus): 15.6 µg/mL (≈ 58.6 µM)
- MIC (Fusobcaterium nucleatum): 7.8 µg/mL (≈ 29.3 µM)
- MIC (Streptococcus sanguis): 15.6 µg/mL (≈ 58.6 µM)
- MIC (Streptoccus mutans): 15.6 µg/mL (≈ 58.6 µM)
- MIC (A. actinomycetemcomitans): 15.6 µg/mL (≈ 58.6 µM)
- PGE2 reduction (%) (PGE2): 88.23%

SMILES: CC(C)c1ccc(O)c(-c2cc(C(C)C)ccc2O)c1 [Isopropyl magnolol, 5,5′-diisopropyl-2,2′-dihydroxy biphenol]
- MIC (Actinomyces viscosus): 3.9 µg/mL (≈ 14.4 µM)
- MIC (Fusobcaterium nucleatum): 0.97 µg/mL (≈ 3.59 µM)
- MIC (Streptococcus sanguis): 1.95 µg/mL (≈ 7.21 µM)
- MIC (Streptoccus mutans): 3.9 µg/mL (≈ 14.4 µM)
- MIC (A. actinomycetemcomitans): 3.9 µg/mL (≈ 14.4 µM)
- PGE2 reduction (%) (PGE2): 90.88%

SMILES: CCCCc1ccc(O)c(-c2cc(CCCC)ccc2O)c1 [Butyl magnolol]
- PGE2 reduction (%) (PGE2): 29.98%
